Organism: Rattus norvegicus
Assay: Open TG-GATES - Regimen: Single
Type: toxicity, organism-based, Sprague-Dawley
Parameters: regimen Single, gender Male, age 6 weeks
Settings: in vivo, po, route gavage; for APTT / Bas / Eos / Fbg / Hb / Ht / Lym / MCH / MCHC / MCV / Mono / Neu / PT / Plat / RBC / Ret / WBC: tissue Blood; for KIDNEY_L / KIDNEY_R / KIDNEY_TOTAL: tissue Kidney; for LIVER: tissue Liver; for A/G / ALP / ALT / AST / BUN / CRE / Ca / Cl / DBIL / GLC / IP / K / LDH / Na / PL / RALB / TBIL / TC / TG / TP / gamma-GTP: tissue Plasma
[1] = 100 mg/kg, 3 h, dose level Middle
[2] = 100 mg/kg, 6 h, dose level Middle
[3] = 100 mg/kg, 9 h, dose level Middle
[4] = 100 mg/kg, 24 h, dose level Middle
[5] = 300 mg/kg, 3 h, dose level High
[6] = 300 mg/kg, 6 h, dose level High
[7] = 300 mg/kg, 9 h, dose level High
[8] = 300 mg/kg, 24 h, dose level High

## C[C@]12CCC(=O)C=C1CC[C@@H]1[C@@H]2CC[C@@]2(C)[C@H]1CC[C@]2(C)O [METHYLTESTOSTERONE]
[1]
  TERMINAL_BW: 202.8 g
  APTT: 15.1 s
  Bas: 0%
  Eos: 1%
  Fbg: 298.8 mg/dL
  Hb: 12.9 g/dL
  Ht: 37.9%
  Lym: 72.2%
  MCH: 22.2 pg
  MCHC: 34.1%
  MCV: 65 fL
  Mono: 4.2%
  Neu: 22.4%
  PT: 13.1 s
  Plat: 111.5 x10_4/uL
  RBC: 582.8 x10_4/ul
  Ret: 8.9%
  WBC: 65.4 x10_2/uL
  KIDNEY_L: 0.9 g
  KIDNEY_R: 0.9 g
  KIDNEY_TOTAL: 1.8 g
  LIVER: 9.3 g
  A/G: 0.9
  ALP: 1276.2 IU/L
  ALT: 45.6 IU/L
  AST: 74 IU/L
  BUN: 11 mg/dL
  CRE: 0.2 mg/dL
  Ca: 11 mg/dL
  Cl: 106.2 meq/L
  DBIL: 0.01 mg/dL
  GLC: 184.8 mg/dL
  IP: 9.6 mg/dL
  K: 4.3 meq/L
  LDH: 73.8 IU/L
  Na: 141.2 meq/L
  PL: 136.2 mg/dL
  RALB: 2.5 g/dL
  TBIL: 0.042 mg/dL
  TC: 74 mg/dL
  TG: 63 mg/dL
  TP: 5.4 g/dL
  gamma-GTP: 1 IU/L
[2]
  TERMINAL_BW: 202.3 g
  APTT: 16.9 s
  Bas: 0%
  Eos: 1%
  Fbg: 274.4 mg/dL
  Hb: 13 g/dL
  Ht: 37.9%
  Lym: 74.4%
  MCH: 21.5 pg
  MCHC: 34.3%
  MCV: 62.6 fL
  Mono: 3.6%
  Neu: 20.8%
  PT: 13.4 s
  Plat: 103.9 x10_4/uL
  RBC: 606.6 x10_4/ul
  Ret: 8.3%
  WBC: 68.3 x10_2/uL
  KIDNEY_L: 0.9 g
  KIDNEY_R: 0.9 g
  KIDNEY_TOTAL: 1.8 g
  LIVER: 8.3 g
  A/G: 0.9
  ALP: 1515.6 IU/L
  ALT: 38 IU/L
  AST: 75.6 IU/L
  BUN: 9.4 mg/dL
  CRE: 0.2 mg/dL
  Ca: 10.7 mg/dL
  Cl: 107.4 meq/L
  DBIL: 0.014 mg/dL
  GLC: 181.6 mg/dL
  IP: 9.8 mg/dL
  K: 4.3 meq/L
  LDH: 56 IU/L
  Na: 141.2 meq/L
  PL: 126.4 mg/dL
  RALB: 2.5 g/dL
  TBIL: 0.048 mg/dL
  TC: 64 mg/dL
  TG: 49.4 mg/dL
  TP: 5.3 g/dL
  gamma-GTP: 1.2 IU/L
[3]
  TERMINAL_BW: 203.2 g
  APTT: 16.2 s
  Bas: 0%
  Eos: 1%
  Fbg: 296 mg/dL
  Hb: 13.2 g/dL
  Ht: 38.4%
  Lym: 76.8%
  MCH: 21.5 pg
  MCHC: 34.3%
  MCV: 62.9 fL
  Mono: 2.8%
  Neu: 18.8%
  PT: 13.5 s
  Plat: 112.3 x10_4/uL
  RBC: 611.6 x10_4/ul
  Ret: 8.1%
  WBC: 69 x10_2/uL
  KIDNEY_L: 0.9 g
  KIDNEY_R: 0.8 g
  KIDNEY_TOTAL: 1.7 g
  LIVER: 8.1 g
  A/G: 0.9
  ALP: 1516.6 IU/L
  ALT: 37.8 IU/L
  AST: 70.2 IU/L
  BUN: 8.2 mg/dL
  CRE: 0.2 mg/dL
  Ca: 10.5 mg/dL
  Cl: 107.6 meq/L
  DBIL: 0.016 mg/dL
  GLC: 177.6 mg/dL
  IP: 10.4 mg/dL
  K: 4.3 meq/L
  LDH: 69.4 IU/L
  Na: 141.8 meq/L
  PL: 119.2 mg/dL
  RALB: 2.5 g/dL
  TBIL: 0.046 mg/dL
  TC: 53.6 mg/dL
  TG: 89.8 mg/dL
  TP: 5.3 g/dL
  gamma-GTP: 1.2 IU/L
[4]
  TERMINAL_BW: 205.5 g
  APTT: 16.9 s
  Bas: 0%
  Eos: 1%
  Fbg: 278.2 mg/dL
  Hb: 13.1 g/dL
  Ht: 38.5%
  Lym: 77.6%
  MCH: 21.5 pg
  MCHC: 34.1%
  MCV: 62.9 fL
  Mono: 3%
  Neu: 18.2%
  PT: 13.3 s
  Plat: 117.9 x10_4/uL
  RBC: 613 x10_4/ul
  Ret: 7.7%
  WBC: 94.4 x10_2/uL
  KIDNEY_L: 0.9 g
  KIDNEY_R: 0.9 g
  KIDNEY_TOTAL: 1.8 g
  LIVER: 9.5 g
  A/G: 0.9
  ALP: 1929.2 IU/L
  ALT: 51.2 IU/L
  AST: 76.2 IU/L
  BUN: 14.8 mg/dL
  CRE: 0.2 mg/dL
  Ca: 11.1 mg/dL
  Cl: 105.6 meq/L
  DBIL: 0.022 mg/dL
  GLC: 189.2 mg/dL
  IP: 8.5 mg/dL
  K: 4.3 meq/L
  LDH: 97.8 IU/L
  Na: 140.6 meq/L
  PL: 142 mg/dL
  RALB: 2.6 g/dL
  TBIL: 0.032 mg/dL
  TC: 65.4 mg/dL
  TG: 141 mg/dL
  TP: 5.6 g/dL
  gamma-GTP: 1.4 IU/L
[5]
  TERMINAL_BW: 199.1 g
  APTT: 18.1 s
  Bas: 0%
  Eos: 0.8%
  Fbg: 279.8 mg/dL
  Hb: 13.1 g/dL
  Ht: 38.1%
  Lym: 74%
  MCH: 21.3 pg
  MCHC: 34.4%
  MCV: 62.1 fL
  Mono: 3.2%
  Neu: 21.2%
  PT: 12.9 s
  Plat: 116.5 x10_4/uL
  RBC: 614.2 x10_4/ul
  Ret: 8.5%
  WBC: 82.4 x10_2/uL
  KIDNEY_L: 0.9 g
  KIDNEY_R: 0.9 g
  KIDNEY_TOTAL: 1.8 g
  LIVER: 8.5 g
  A/G: 0.9
  ALP: 1496.8 IU/L
  ALT: 40 IU/L
  AST: 74.6 IU/L
  BUN: 10.6 mg/dL
  CRE: 0.2 mg/dL
  Ca: 10.6 mg/dL
  Cl: 105.4 meq/L
  DBIL: 0.012 mg/dL
  GLC: 188.2 mg/dL
  IP: 9.6 mg/dL
  K: 4.3 meq/L
  LDH: 66 IU/L
  Na: 140.8 meq/L
  PL: 135.2 mg/dL
  RALB: 2.5 g/dL
  TBIL: 0.05 mg/dL
  TC: 75 mg/dL
  TG: 41.2 mg/dL
  TP: 5.4 g/dL
  gamma-GTP: 1.2 IU/L
[6]
  TERMINAL_BW: 201.8 g
  APTT: 18.2 s
  Bas: 0%
  Eos: 0.8%
  Fbg: 274.8 mg/dL
  Hb: 12.9 g/dL
  Ht: 37.7%
  Lym: 76.4%
  MCH: 21.3 pg
  MCHC: 34.3%
  MCV: 62 fL
  Mono: 3%
  Neu: 19.6%
  PT: 13.4 s
  Plat: 114.3 x10_4/uL
  RBC: 608.4 x10_4/ul
  Ret: 7.9%
  WBC: 66.5 x10_2/uL
  KIDNEY_L: 0.9 g
  KIDNEY_R: 0.9 g
  KIDNEY_TOTAL: 1.7 g
  LIVER: 8.1 g
  A/G: 0.9
  ALP: 1589.4 IU/L
  ALT: 45 IU/L
  AST: 77.2 IU/L
  BUN: 9 mg/dL
  CRE: 0.2 mg/dL
  Ca: 10.6 mg/dL
  Cl: 107.8 meq/L
  DBIL: 0.016 mg/dL
  GLC: 181.8 mg/dL
  IP: 9.6 mg/dL
  K: 4.2 meq/L
  LDH: 67.8 IU/L
  Na: 141.6 meq/L
  PL: 120 mg/dL
  RALB: 2.5 g/dL
  TBIL: 0.054 mg/dL
  TC: 57.8 mg/dL
  TG: 40.8 mg/dL
  TP: 5.4 g/dL
  gamma-GTP: 1.2 IU/L
[7]
  TERMINAL_BW: 203.1 g
  APTT: 17.8 s
  Bas: 0%
  Eos: 1%
  Fbg: 269.8 mg/dL
  Hb: 12.7 g/dL
  Ht: 37.2%
  Lym: 74.4%
  MCH: 21.5 pg
  MCHC: 34.1%
  MCV: 62.9 fL
  Mono: 2.8%
  Neu: 21.8%
  PT: 13.7 s
  Plat: 105 x10_4/uL
  RBC: 592.4 x10_4/ul
  Ret: 8.5%
  WBC: 70.7 x10_2/uL
  KIDNEY_L: 0.9 g
  KIDNEY_R: 0.9 g
  KIDNEY_TOTAL: 1.8 g
  LIVER: 8.1 g
  A/G: 0.9
  ALP: 1500.8 IU/L
  ALT: 36.6 IU/L
  AST: 70.6 IU/L
  BUN: 7.8 mg/dL
  CRE: 0.2 mg/dL
  Ca: 10.5 mg/dL
  Cl: 107.6 meq/L
  DBIL: 0.02 mg/dL
  GLC: 182.4 mg/dL
  IP: 10.7 mg/dL
  K: 4.3 meq/L
  LDH: 59 IU/L
  Na: 142.4 meq/L
  PL: 103.2 mg/dL
  RALB: 2.5 g/dL
  TBIL: 0.06 mg/dL
  TC: 46.2 mg/dL
  TG: 49 mg/dL
  TP: 5.3 g/dL
  gamma-GTP: 1 IU/L
[8]
  TERMINAL_BW: 203 g
  APTT: 20.8 s
  Bas: 0%
  Eos: 1%
  Fbg: 267.4 mg/dL
  Hb: 13.1 g/dL
  Ht: 37.8%
  Lym: 83%
  MCH: 22 pg
  MCHC: 34.5%
  MCV: 63.7 fL
  Mono: 2.6%
  Neu: 13%
  PT: 13.8 s
  Plat: 116.9 x10_4/uL
  RBC: 593.2 x10_4/ul
  Ret: 7.7%
  WBC: 89.5 x10_2/uL
  KIDNEY_L: 0.9 g
  KIDNEY_R: 0.9 g
  KIDNEY_TOTAL: 1.8 g
  LIVER: 10.2 g
  A/G: 0.9
  ALP: 1864.8 IU/L
  ALT: 48.8 IU/L
  AST: 77.6 IU/L
  BUN: 16.8 mg/dL
  CRE: 0.2 mg/dL
  Ca: 10.9 mg/dL
  Cl: 107.8 meq/L
  DBIL: 0.034 mg/dL
  GLC: 185.2 mg/dL
  IP: 7.6 mg/dL
  K: 4.3 meq/L
  LDH: 71 IU/L
  Na: 142 meq/L
  PL: 126.6 mg/dL
  RALB: 2.6 g/dL
  TBIL: 0.032 mg/dL
  TC: 45.4 mg/dL
  TG: 238 mg/dL
  TP: 5.6 g/dL
  gamma-GTP: 1.2 IU/L
